Measured values published in ChEMBL document CHEMBL1201862, “PubChem BioAssay data set” (2004).
Activity calls are given as the source filed them.

Columns and labels:
[1] = target: T1, Ubiquitin-conjugating enzyme E2 N (Homo sapiens, UniProt P61088); assay type: functional
T1 sequence (P61088 whole entry): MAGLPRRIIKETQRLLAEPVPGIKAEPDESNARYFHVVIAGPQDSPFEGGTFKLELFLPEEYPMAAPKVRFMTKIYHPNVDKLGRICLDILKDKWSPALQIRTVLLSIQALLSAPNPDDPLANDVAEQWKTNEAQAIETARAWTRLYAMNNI

Bcl-2-related protein A1 = target: T2, Bcl-2-related protein A1 (Mus musculus, UniProt Q07440); assay type: functional;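 further: confirmatory dose–response counterscreen on Bfl-1, used to check hits from a UBC13 polyubiquitin inhibitor campaign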
T2 sequence (Q07440 whole entry): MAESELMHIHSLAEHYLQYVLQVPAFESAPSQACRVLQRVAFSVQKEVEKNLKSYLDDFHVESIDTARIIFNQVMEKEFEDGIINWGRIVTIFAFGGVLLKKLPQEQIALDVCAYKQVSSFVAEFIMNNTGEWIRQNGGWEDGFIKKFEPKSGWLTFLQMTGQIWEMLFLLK

[2] = target: T1, Ubiquitin-conjugating enzyme E2 N; assay type: functional; remark: listed apart in the source
[3] = Trypanosoma cruzi growth suppression in host cells – NIH3T3 host cells, beta-gal luminescence, confirmation (AID 2044); assay type: functional, cell-based;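 further: intracellular parasites grown in NIH/3T3 mouse fibroblasts as host cells; luminescent beta-galactosidase reporter signal from transgenic T. cruzi replicating inside host cells; inhibitors lower the luminescence signal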
[4] = NIH3T3 cell viability loss – ATP luminescence, mouse fibroblasts, counter-screen, dose response (AID 2010); assay type: functional, cell-based;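 further: cells exposed to compound for about 90 hours before reading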
cells [5] = test: cells
[6] = target: Eukaryotic translation initiation factor 4H (Homo sapiens, UniProt Q15056); test: eIF4H binding inhibition – biochemical, uHTS, fluorescence polarization, translation initiation inhibitor project, primary screen (AID 2012)
[7] = target: Polyadenylate-binding protein 1 (Homo sapiens, UniProt P11940); test: blockers of PABP interaction with poly(A) – biochemical, fluorescence polarization, […] (AID 2014)
Polyadenylate-binding protein 1, sequence (P11940 whole entry): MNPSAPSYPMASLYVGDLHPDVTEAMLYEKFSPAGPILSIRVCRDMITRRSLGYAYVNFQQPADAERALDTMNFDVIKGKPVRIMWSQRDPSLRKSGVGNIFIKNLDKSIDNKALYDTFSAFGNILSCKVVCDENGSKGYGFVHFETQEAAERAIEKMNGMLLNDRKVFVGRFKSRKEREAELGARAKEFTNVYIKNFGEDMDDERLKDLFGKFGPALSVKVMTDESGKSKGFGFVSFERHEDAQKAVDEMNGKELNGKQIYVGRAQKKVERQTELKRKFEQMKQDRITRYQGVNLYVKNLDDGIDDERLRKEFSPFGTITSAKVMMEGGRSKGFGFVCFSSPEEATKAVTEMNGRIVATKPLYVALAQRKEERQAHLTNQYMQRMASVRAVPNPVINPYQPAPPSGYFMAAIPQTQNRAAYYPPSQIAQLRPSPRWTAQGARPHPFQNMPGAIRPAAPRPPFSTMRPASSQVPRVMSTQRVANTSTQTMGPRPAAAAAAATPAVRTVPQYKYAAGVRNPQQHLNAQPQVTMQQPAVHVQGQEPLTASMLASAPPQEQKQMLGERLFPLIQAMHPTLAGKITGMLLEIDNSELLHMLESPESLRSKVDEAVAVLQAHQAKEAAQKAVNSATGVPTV

[8] = target: DNA dC->dU-editing enzyme APOBEC-3A (Homo sapiens, UniProt P31941); test: Dose Response confirmation of small molecule APOBEC3A DNA Deaminase Inhibitors via a fluorescence-based single-stranded DNA deaminase assay. [Related pubchem assays (depositor defined):AID493011, AID493024]; assay type: functional
DNA dC->dU-editing enzyme APOBEC-3A, sequence (P31941 whole entry): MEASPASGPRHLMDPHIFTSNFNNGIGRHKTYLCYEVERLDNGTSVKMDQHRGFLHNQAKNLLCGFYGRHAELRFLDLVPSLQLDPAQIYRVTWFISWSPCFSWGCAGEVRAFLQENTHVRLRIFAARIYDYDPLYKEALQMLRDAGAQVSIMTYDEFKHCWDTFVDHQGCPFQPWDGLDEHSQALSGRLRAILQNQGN

[9] = target: DNA dC->dU-editing enzyme APOBEC-3G (Homo sapiens, UniProt Q9HC16); assay type: functional;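 further: Dose-response counterscreen measuring inhibition of APOBEC3G DNA deaminase activity, run while confirming APOBEC3A inhibitors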
DNA dC->dU-editing enzyme APOBEC-3G, sequence (Q9HC16 whole entry): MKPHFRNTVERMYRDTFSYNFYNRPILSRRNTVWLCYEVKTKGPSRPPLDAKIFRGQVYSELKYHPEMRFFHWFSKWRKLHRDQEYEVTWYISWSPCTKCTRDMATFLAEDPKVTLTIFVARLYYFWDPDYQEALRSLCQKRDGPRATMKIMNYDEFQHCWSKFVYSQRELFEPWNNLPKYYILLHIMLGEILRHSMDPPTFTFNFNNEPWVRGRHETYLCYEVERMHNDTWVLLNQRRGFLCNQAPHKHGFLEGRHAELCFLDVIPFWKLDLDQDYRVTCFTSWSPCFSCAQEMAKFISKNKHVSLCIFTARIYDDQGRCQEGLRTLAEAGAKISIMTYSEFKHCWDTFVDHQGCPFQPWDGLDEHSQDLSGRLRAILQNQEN

Vero [10] = test: cells; assay type: functional; settings: Chlorocebus sabaeus
cells [11] = test: cells; remark: listed apart in the source
Vero [12] = test: cells; assay type: functional, cell-based; settings: Chlorocebus sabaeus
[13] = viability of uninfected HEp-2 cells – cell-based, HTS, cytotoxicity control for RSV inhibitor project, dose response (AID 2410); assay type: functional; settings: human respiratory syncytial virus
HeLa [14] = test: viability loss in HeLa cells – cell-based, 24 h, cherry-picked samples, cytotoxicity control, dose response (AID 504726); assay type: functional; settings: Homo sapiens;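 further: potency for cytotoxicity as loss of luminescence signal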
[15] = target: Luciferin 4-monooxygenase (Photinus pyralis, UniProt P08659); test: inhibition of purified Photinus pyralis luciferase – biochemical, luminescence, dose response (AID 1891)
Luciferin 4-monooxygenase, sequence (P08659 whole entry): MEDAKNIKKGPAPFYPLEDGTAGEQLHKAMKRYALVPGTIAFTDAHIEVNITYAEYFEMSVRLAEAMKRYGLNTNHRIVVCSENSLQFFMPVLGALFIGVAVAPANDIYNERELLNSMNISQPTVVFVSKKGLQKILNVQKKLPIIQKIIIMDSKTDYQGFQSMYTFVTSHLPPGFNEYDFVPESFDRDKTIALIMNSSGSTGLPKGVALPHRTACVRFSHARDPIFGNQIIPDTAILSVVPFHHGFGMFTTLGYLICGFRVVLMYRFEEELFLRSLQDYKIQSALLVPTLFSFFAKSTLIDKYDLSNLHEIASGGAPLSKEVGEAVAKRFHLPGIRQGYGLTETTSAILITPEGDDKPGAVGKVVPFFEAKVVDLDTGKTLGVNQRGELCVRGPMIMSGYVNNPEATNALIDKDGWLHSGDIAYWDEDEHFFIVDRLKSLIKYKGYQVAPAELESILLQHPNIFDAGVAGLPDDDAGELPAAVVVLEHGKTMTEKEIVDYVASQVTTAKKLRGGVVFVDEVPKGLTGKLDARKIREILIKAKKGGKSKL

[16] = M. tuberculosis H37Rv growth inhibitors, H37Rv strain (AID 1626); assay type: functional
[17] = target: T3, Rac GTPase-activating protein 1 (Homo sapiens, UniProt Q9H0H5); test: blockers of MgcRacGAP-driven Rac1 GTP hydrolysis – biochemical, ADP Hunter fluorescence, primary and confirmatory, confirmation (AID 624330); assay type: functional
T3 sequence (Q9H0H5 whole entry): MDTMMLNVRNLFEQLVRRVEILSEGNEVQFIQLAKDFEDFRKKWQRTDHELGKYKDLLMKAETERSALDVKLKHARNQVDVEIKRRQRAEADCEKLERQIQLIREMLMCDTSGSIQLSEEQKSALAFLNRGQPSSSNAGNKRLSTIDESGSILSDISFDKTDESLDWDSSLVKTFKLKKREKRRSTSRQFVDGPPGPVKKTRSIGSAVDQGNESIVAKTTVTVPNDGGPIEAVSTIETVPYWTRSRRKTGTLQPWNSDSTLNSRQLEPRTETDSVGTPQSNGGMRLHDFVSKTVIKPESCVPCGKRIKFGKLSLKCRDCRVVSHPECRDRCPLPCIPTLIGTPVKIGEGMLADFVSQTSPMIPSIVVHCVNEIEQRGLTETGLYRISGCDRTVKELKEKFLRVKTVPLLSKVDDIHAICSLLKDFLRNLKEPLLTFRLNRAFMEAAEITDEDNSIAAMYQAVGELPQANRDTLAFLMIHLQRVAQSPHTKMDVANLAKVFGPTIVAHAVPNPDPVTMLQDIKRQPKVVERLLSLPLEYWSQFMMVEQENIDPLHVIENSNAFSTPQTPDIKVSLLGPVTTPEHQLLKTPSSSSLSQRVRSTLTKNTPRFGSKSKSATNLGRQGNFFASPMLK

[18] = Luminescence Cell-Based Dose Confirmation HTS to Identify Inhibitors of Platelet Dense Granule Release. [Related pubchem assays: 1663 (Primary HTS), 1678 (Summary of Project)]; assay type: functional
cells [19] = assay type: functional, cell-based
[20] = A Cell Based Secondary Assay To Explore Cytotoxicity of Compounds that Sensitize Mycobacterium Tuberculosis to Beta-Lactam Antibiotics.; assay type: functional
cells [21] = assay type: functional, cell-based; remark: listed apart in the source
[22] = CCR5-tropic HIV-1 fusion blockers – cell-based, CCR5-tropic Env, dose response (AID 2279); assay type: functional
Genome polyprotein = Genome polyprotein (dengue virus type 2, UniProt P29990); test: flavivirus cap methylation enzyme inhibition – biochemical, confirmation dose response, primary screen (AID 588689); assay type: functional
[23] = target: FAD-linked sulfhydryl oxidase ALR (Homo sapiens, UniProt P55789); test: ALR-catalysed DTT oxidation blockers – biochemical, H2O2 detection, luminescence, cherry-pick, dose response (AID 493248)
FAD-linked sulfhydryl oxidase ALR, sequence (P55789 whole entry): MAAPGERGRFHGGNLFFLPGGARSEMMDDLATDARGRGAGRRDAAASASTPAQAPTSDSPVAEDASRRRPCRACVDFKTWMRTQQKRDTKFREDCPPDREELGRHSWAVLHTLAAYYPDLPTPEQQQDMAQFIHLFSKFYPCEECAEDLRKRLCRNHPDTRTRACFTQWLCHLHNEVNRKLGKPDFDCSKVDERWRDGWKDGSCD

[24] = target: Cyclin-dependent kinase 5/CDK5 activator 1 (Homo sapiens, UniProt Q00535); test: blockade of human CDK5 activity – biochemical, cherry-picked samples, set 2, dose response (AID 504545)
Cyclin-dependent kinase 5/CDK5 activator 1, sequence (Q00535 whole entry, the tested form may be a part): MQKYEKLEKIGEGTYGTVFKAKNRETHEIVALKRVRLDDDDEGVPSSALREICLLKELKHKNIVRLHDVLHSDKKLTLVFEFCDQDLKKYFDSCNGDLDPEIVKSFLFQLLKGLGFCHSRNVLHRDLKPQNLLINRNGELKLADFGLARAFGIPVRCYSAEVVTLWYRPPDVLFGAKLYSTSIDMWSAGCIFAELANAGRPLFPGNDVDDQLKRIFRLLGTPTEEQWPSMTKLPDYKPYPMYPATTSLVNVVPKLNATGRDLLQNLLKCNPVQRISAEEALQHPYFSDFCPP
Cyclin-dependent kinase 5/CDK5 activator 1, sequence (Q15078 whole entry, further chain, the tested form may be a part): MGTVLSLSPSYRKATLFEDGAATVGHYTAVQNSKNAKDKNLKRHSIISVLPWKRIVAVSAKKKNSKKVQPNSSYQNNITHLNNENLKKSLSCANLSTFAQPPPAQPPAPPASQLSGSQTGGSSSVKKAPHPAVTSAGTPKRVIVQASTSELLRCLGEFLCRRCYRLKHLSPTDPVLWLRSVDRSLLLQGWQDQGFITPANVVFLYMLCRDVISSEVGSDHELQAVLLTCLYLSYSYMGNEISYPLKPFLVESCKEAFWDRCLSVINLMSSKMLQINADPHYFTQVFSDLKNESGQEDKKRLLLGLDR

[25] = target: T4, RNA-binding protein pos-1 (Caenorhabditis elegans, UniProt G5EF15); test: disruptors of C. elegans POS-1 RNA interaction – biochemical, fluorescence polarization, dose response (AID 1964);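 further: purified POS-1 fused to maltose binding protein made in E. coli; potency of compounds blocking POS-1 binding to fluorescent RNA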
T4 sequence (G5EF15 whole entry): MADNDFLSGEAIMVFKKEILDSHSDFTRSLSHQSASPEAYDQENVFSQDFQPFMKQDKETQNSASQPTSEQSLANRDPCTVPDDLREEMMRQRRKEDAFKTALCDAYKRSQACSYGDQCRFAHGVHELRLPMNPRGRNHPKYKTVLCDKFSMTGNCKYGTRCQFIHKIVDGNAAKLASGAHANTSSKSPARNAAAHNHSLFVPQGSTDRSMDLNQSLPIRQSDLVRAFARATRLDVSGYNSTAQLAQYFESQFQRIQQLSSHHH

HeLa [26] = test: ATP-based viability loss in HeLa cells – cell-based, CellTiter-Glo luminescence, cherry-pick samples, cytotoxicity control for MITF activator project, dose response (AID 540259); assay type: functional; settings: Homo sapiens
[27] = target: T5, Zinc finger protein mex-5 (Caenorhabditis elegans, UniProt Q9XUB2); test: potency of MEX-5 RNA-binding blockers – biochemical, C. elegans, fluorescence polarization, dose response (AID 1960)
T5 sequence (Q9XUB2 whole entry): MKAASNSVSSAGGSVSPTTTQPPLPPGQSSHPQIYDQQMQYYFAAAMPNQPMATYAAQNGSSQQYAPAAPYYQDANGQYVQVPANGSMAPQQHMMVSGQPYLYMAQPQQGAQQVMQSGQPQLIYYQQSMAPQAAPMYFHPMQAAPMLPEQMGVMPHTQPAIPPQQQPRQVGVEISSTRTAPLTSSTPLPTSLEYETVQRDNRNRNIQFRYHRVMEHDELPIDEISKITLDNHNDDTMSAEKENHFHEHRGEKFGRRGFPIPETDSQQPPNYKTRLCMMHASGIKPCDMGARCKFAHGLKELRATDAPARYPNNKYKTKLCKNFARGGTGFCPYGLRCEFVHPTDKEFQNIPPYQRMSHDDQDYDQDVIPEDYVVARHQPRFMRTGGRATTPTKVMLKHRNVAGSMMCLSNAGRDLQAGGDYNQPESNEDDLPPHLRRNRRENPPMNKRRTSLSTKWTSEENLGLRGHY

Cytochrome P450 3A4 = Cytochrome P450 3A4 (Homo sapiens, UniProt P08684);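 further: CYP3A4 tested as one member of a cytochrome P450 panel screen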
Cytochrome P450 3A4, sequence (P08684 whole entry): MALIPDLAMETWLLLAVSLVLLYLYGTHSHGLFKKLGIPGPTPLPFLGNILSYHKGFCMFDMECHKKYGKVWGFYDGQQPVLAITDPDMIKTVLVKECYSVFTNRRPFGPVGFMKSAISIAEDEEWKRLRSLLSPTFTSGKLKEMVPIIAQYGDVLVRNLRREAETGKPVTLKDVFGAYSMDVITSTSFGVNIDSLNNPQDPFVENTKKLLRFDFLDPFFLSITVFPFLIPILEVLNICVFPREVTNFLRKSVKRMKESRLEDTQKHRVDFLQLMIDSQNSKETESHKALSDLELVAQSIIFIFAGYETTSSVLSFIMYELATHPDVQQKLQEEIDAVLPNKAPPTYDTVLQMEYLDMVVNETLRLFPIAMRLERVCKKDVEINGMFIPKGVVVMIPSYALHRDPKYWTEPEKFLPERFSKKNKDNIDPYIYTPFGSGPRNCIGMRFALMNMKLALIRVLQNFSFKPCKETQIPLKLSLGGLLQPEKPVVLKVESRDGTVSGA

Cytochrome P450 2C19 = Cytochrome P450 2C19 (Homo sapiens, UniProt P33261); test: Cytochrome panel assay with activity outcomes. Panel member name: p450-cyp2c19 Compounds with AC50 equal or less than 10 uM are considered active; assay type: functional; settings: read-out: AC50
Cytochrome P450 2C19, sequence (P33261 whole entry): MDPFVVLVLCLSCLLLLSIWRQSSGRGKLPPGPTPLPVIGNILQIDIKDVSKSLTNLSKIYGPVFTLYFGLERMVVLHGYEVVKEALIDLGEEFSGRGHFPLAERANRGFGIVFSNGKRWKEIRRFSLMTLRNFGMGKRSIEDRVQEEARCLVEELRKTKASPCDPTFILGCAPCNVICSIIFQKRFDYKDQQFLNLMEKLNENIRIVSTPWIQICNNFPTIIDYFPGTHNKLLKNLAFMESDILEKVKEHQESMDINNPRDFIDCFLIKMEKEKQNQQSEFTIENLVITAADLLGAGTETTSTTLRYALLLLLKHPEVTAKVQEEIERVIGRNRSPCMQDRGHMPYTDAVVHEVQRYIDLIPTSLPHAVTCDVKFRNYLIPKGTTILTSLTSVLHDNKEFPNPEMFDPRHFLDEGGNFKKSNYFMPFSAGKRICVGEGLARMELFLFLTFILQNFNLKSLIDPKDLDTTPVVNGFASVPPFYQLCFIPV

Hexokinase HKDC1 = target: T6, Hexokinase HKDC1 (Homo sapiens, UniProt Q2TB90); test: inhibition of HKDC1 glucose phosphorylation – biochemical, W721R variant, dose response (AID 504729); assay type: functional
T6 sequence (Q2TB90 whole entry): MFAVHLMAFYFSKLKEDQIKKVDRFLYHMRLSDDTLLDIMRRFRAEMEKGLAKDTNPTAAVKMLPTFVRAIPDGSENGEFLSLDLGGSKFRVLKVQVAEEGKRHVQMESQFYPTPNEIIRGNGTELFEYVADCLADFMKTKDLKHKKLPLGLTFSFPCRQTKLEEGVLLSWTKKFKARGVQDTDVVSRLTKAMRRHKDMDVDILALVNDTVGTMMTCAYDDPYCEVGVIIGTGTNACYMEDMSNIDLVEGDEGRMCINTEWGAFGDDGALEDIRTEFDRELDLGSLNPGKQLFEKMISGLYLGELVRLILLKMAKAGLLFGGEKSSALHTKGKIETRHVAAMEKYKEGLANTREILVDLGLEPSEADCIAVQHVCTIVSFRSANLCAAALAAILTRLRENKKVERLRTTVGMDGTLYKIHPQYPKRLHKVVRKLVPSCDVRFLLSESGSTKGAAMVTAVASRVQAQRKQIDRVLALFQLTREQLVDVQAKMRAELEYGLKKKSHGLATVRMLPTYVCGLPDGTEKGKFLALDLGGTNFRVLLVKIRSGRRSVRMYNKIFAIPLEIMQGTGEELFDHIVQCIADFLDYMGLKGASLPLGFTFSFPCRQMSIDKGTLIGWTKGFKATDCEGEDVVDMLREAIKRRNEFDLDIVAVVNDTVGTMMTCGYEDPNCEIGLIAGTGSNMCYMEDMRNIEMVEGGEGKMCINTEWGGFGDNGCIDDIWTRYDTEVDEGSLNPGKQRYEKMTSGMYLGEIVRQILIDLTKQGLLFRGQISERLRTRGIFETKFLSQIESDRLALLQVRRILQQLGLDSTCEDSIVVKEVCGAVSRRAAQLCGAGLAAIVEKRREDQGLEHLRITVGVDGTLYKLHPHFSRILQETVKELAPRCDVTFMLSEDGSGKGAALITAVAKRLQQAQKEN

Cytochrome P450 2D6 = Cytochrome P450 2D6 (Homo sapiens, UniProt P10635);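 further: CYP2D6 member of a cytochrome P450 panel assay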
Cytochrome P450 2D6, sequence (P10635 whole entry): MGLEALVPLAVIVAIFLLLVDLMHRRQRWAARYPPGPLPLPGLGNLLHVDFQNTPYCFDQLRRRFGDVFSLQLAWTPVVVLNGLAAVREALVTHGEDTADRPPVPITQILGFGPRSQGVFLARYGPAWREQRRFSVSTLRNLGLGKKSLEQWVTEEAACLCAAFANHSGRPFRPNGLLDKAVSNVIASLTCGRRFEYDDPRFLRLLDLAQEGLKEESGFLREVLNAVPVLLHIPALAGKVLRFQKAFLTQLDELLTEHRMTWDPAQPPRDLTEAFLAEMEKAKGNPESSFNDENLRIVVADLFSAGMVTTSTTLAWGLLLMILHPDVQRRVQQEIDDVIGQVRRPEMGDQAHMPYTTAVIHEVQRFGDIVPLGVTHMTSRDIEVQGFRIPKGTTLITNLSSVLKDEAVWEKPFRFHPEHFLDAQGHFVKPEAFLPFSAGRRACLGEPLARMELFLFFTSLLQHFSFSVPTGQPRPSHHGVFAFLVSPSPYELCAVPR

HeLa [28] = test: Cytotoxicity counterscreen assay for transcriptional activators of heat shock protein 70 (Hsp70). [Related pubchem assays: 1203, 1252 ]; assay type: functional; settings: Homo sapiens
[29] = target: Induced myeloid leukemia cell differentiation protein Mcl-1 (Homo sapiens, UniProt Q07820); assay type: functional
Induced myeloid leukemia cell differentiation protein Mcl-1, sequence (Q07820 whole entry): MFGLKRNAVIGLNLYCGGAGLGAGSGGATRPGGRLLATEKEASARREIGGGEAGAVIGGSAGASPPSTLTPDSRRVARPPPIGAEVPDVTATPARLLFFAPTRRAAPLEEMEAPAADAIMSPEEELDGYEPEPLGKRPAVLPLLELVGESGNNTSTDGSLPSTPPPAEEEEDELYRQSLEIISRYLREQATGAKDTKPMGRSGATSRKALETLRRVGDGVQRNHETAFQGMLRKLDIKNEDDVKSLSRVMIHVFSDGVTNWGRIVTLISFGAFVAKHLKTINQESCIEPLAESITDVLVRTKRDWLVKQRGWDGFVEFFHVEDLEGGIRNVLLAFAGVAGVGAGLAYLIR

## CN(C)CCCN(C(=O)c1ccc(S(=O)(=O)N2CCCCCC2)cc1)c1nc2cc3c(cc2s1)OCCO3
[1]
  IC50: 4.63 µM (active)
Bcl-2-related protein A1
  IC50: > 20 µM (inactive)
[2]
  IC50: 4.41 µM (active)
[3]
  EC50: < 0.1 µM (active)
[4]
  EC50: > 60 µM (not active)
Cells [5]
  EC50: 0.201 µM (active)

## C[N+]12CCCCC1[C@@H](CO)CCC2 (some centres undefined)
[6]
  IC50: > 100 µM (inactive)
[7]
  IC50: 5.51 µM (active)
[8]
  IC50: 2.79 µM (active)
[9]
  IC50: 4.19 µM (active)

## COCCNC(=O)c1cc(-c2ccc(-c3ccccc3)cc2)nc2ccccc12
Vero [10]
  CC50: 19.2 µM (active)
Cells [11]
  IC50: 4.81 µM (active)
Vero [12]
  IC50: 7.44 µM (active)
[13]
  CC50: 15.2 µM (active)

## O=C(c1cnn2c(-c3ccccc3)cc(-c3ccccc3)nc12)N1CCN(Cc2ccccc2)CC1
HeLa [14]
  AC50: 62.6 µM (active)
[13]
  CC50: 15.5 µM (active)

## COc1cc(OC)c2cc[nH]c2c1
[15]
  EC50: > 112 µM (not active)
[16]
  IC50: > 100 µM (active)
[17]
  IC50: 108 µM (active)
[18]
  EC50: > 112 µM (not active)

## CCC(=O)NC(=S)Nc1ccc(NC(=O)c2cccc([N+](=O)[O-])c2C)cc1
Cells [19]
  EC50: > 350 µM (not active)
[20]
  CC50: > 40 µM (active)
Cells [21]
  EC50: > 350 µM (not active)

## O=C(NCc1ccco1)c1cc2n(n1)C(C(F)(F)F)CC(c1ccc(Cl)c(Cl)c1)N2 (centres undefined)
[3]
  EC50: 3.86 µM (active)
[4]
  EC50: 7.67 µM (active)
[16]
  IC50: > 100 µM (active)

## COC(=O)c1sc(-c2ccc(C(C)(C)C)cc2)cc1NC(=O)c1ccccc1C(=O)O
[22]
  IC50: 49.9 µM (active)
Genome polyprotein
  IC50: 35.9 µM (active)
[23]
  AC50: 0.087 µM (active)

## CC(C)n1cnc2c(Nc3ccc(C(=O)O)cc3)nc(Cl)nc21
[24]
  AC50: 22.2 µM (active)

## CN1CCc2c(sc(NC(=O)c3ccc4ccccc4c3)c2C(N)=O)C1
[25]
  EC50: > 300 µM (not active)
[3]
  EC50: 3.25 µM (active)
[4]
  EC50: 9.24 µM (active)
HeLa [26]
  AC50: 24.5 µM (active)
[27]
  EC50: > 300 µM (inconclusive)
HeLa [14]
  AC50: 35.3 µM (active)

## CCC(C)NC(=O)c1cc2cc3ccc(OC)cc3nc2s1 (centres undefined)
Cells [11]
  IC50: 10.8 µM (active)
[13]
  CC50: 44.8 µM (active)

## COc1cccc(C(=O)ON=C(N)c2ccccn2)c1
[15]
  EC50: 2.07 µM (active)
[24]
  AC50: 12.9 µM (active)

## CN(C)c1ccc(/C=N/NC(=O)c2cc(-c3ccc4c(c3)OCO4)[nH]n2)cc1
[20]
  CC50: 30.2 µM (active)

## CC1=NOC(=O)/C1=C\c1ccc(-c2ccc(Cl)cc2Cl)o1
Vero [10]
  CC50: > 25 µM (active)
Cytochrome P450 3A4
  AC50: 17.8 µM (inconclusive)
Vero [12]
  IC50: > 25 µM (active)
Cytochrome P450 2C19
  AC50: 7.94 µM (inconclusive)
Hexokinase HKDC1
  IC50: 20.6 µM (inactive)
Cytochrome P450 2D6
  AC50: 14.1 µM (inconclusive)
HeLa [28]
  CC50: > 3.67 µM (not active)
[29]
  IC50: 1.7 µM (active)
